From ChEMBL document CHEMBL3885861, “Open TG-GATES”

Organism: Rattus norvegicus
Assay: Open TG-GATES - Regimen: Single
Type: toxicity, organism-based, Sprague-Dawley
Parameters: regimen Single, gender Male, age 6 weeks
Details: in vivo, po, route gavage; for APTT / Bas / Eos / Fbg / Hb / Ht / MCH / MCHC / MCV / Mono / PT / Plat / RBC / Ret / WBC: tissue Blood; for ALT / CRE / DBIL / GLC / IP / K / LDH / Na / PL / RALB / TBIL / TC / TG / TP / gamma-GTP / ALP: tissue Plasma
[1] = 200 mg/kg, 3 h, dose level Middle
[2] = 200 mg/kg, 6 h, dose level Middle
[3] = 200 mg/kg, 9 h, dose level Middle
[4] = 200 mg/kg, 24 h, dose level Middle
[5] = 600 mg/kg, 3 h, dose level High
[6] = 600 mg/kg, 6 h, dose level High
[7] = 600 mg/kg, 9 h, dose level High
[8] = 600 mg/kg, 24 h, dose level High

CCN(CC)C(=S)SSC(=S)N(CC)CC
TERMINAL_BW [1]: 213.2 g
APTT [1]: 21.8 s
Bas [1]: 0%
Eos [1]: 0.8%
Fbg [1]: 313.2 mg/dL
Hb [1]: 13.4 g/dL
Ht [1]: 41.1%
MCH [1]: 20.2 pg
MCHC [1]: 32.6%
MCV [1]: 62.1 fL
Mono [1]: 4.2%
PT [1]: 16.2 s
Plat [1]: 124 x10_4/uL
RBC [1]: 662.4 x10_4/ul
Ret [1]: 7.4%
WBC [1]: 77.1 x10_2/uL
ALT [1]: 40.6 IU/L
CRE [1]: 0.1 mg/dL
DBIL [1]: 0 mg/dL
GLC [1]: 181.2 mg/dL
IP [1]: 9.4 mg/dL
K [1]: 4.1 meq/L
LDH [1]: 215.4 IU/L
Na [1]: 142 meq/L
PL [1]: 147.8 mg/dL
RALB [1]: 3.2 g/dL
TBIL [1]: 0.004 mg/dL
TC [1]: 80.8 mg/dL
TG [1]: 84.2 mg/dL
TP [1]: 5.7 g/dL
gamma-GTP [1]: 1 IU/L
TERMINAL_BW [2]: 210.4 g
APTT [2]: 22.1 s
Bas [2]: 0%
Eos [2]: 0.4%
Fbg [2]: 299.4 mg/dL
Hb [2]: 13 g/dL
Ht [2]: 40.2%
MCH [2]: 20.2 pg
MCHC [2]: 32.3%
MCV [2]: 62.4 fL
Mono [2]: 2.2%
PT [2]: 15.9 s
Plat [2]: 123.4 x10_4/uL
RBC [2]: 644.6 x10_4/ul
Ret [2]: 7.2%
WBC [2]: 67.3 x10_2/uL
ALP [2]: 1309.6 IU/L
ALT [2]: 37.2 IU/L
CRE [2]: 0.1 mg/dL
DBIL [2]: 0.004 mg/dL
GLC [2]: 194 mg/dL
IP [2]: 9.6 mg/dL
K [2]: 4.1 meq/L
LDH [2]: 192 IU/L
Na [2]: 141 meq/L
PL [2]: 125.4 mg/dL
RALB [2]: 3.1 g/dL
TBIL [2]: 0.012 mg/dL
TC [2]: 73.2 mg/dL
TG [2]: 33 mg/dL
TP [2]: 5.4 g/dL
gamma-GTP [2]: 0.8 IU/L
TERMINAL_BW [3]: 213.7 g
APTT [3]: 22.8 s
Bas [3]: 0%
Eos [3]: 0.6%
Fbg [3]: 297 mg/dL
Hb [3]: 13.1 g/dL
Ht [3]: 40.6%
MCH [3]: 20 pg
MCHC [3]: 32.3%
MCV [3]: 61.8 fL
Mono [3]: 2%
PT [3]: 15.9 s
Plat [3]: 119.2 x10_4/uL
RBC [3]: 659 x10_4/ul
Ret [3]: 7.8%
WBC [3]: 81.1 x10_2/uL
ALP [3]: 1366 IU/L
ALT [3]: 34.6 IU/L
CRE [3]: 0.1 mg/dL
DBIL [3]: 0.012 mg/dL
GLC [3]: 195 mg/dL
IP [3]: 9.1 mg/dL
K [3]: 4.1 meq/L
LDH [3]: 141.2 IU/L
Na [3]: 140.6 meq/L
PL [3]: 137.8 mg/dL
RALB [3]: 3.2 g/dL
TBIL [3]: 0.02 mg/dL
TC [3]: 80.4 mg/dL
TG [3]: 46.8 mg/dL
TP [3]: 5.5 g/dL
gamma-GTP [3]: 0.8 IU/L
TERMINAL_BW [4]: 216 g
APTT [4]: 22 s
Bas [4]: 0%
Eos [4]: 0.4%
Fbg [4]: 301.2 mg/dL
Hb [4]: 13 g/dL
Ht [4]: 39.9%
MCH [4]: 20 pg
MCHC [4]: 32.5%
MCV [4]: 61.6 fL
Mono [4]: 2.4%
PT [4]: 16.6 s
Plat [4]: 111.9 x10_4/uL
RBC [4]: 649.2 x10_4/ul
Ret [4]: 6.6%
WBC [4]: 91.8 x10_2/uL
ALP [4]: 1198.6 IU/L
ALT [4]: 38.4 IU/L
CRE [4]: 0.1 mg/dL
DBIL [4]: 0.004 mg/dL
GLC [4]: 170 mg/dL
IP [4]: 7 mg/dL
K [4]: 4.1 meq/L
LDH [4]: 160.6 IU/L
Na [4]: 142.2 meq/L
PL [4]: 131.6 mg/dL
RALB [4]: 2.9 g/dL
TBIL [4]: 0.012 mg/dL
TC [4]: 80.8 mg/dL
TG [4]: 83 mg/dL
TP [4]: 5.3 g/dL
gamma-GTP [4]: 1.2 IU/L
TERMINAL_BW [5]: 218 g
APTT [5]: 21.3 s
Bas [5]: 0%
Eos [5]: 0.8%
Fbg [5]: 293.2 mg/dL
Hb [5]: 13.4 g/dL
Ht [5]: 41.4%
MCH [5]: 20 pg
MCHC [5]: 32.4%
MCV [5]: 61.6 fL
Mono [5]: 4.2%
PT [5]: 16.2 s
Plat [5]: 126.4 x10_4/uL
RBC [5]: 674 x10_4/ul
Ret [5]: 7.9%
WBC [5]: 82 x10_2/uL
ALP [5]: 1358.2 IU/L
ALT [5]: 45.8 IU/L
CRE [5]: 0.1 mg/dL
DBIL [5]: 0.01 mg/dL
GLC [5]: 194.8 mg/dL
IP [5]: 10.1 mg/dL
K [5]: 4 meq/L
LDH [5]: 250.2 IU/L
Na [5]: 141.4 meq/L
PL [5]: 132 mg/dL
RALB [5]: 3.1 g/dL
TBIL [5]: 0.008 mg/dL
TC [5]: 76.6 mg/dL
TG [5]: 57.8 mg/dL
TP [5]: 5.6 g/dL
gamma-GTP [5]: 1 IU/L
TERMINAL_BW [6]: 211.8 g
APTT [6]: 23.9 s
Bas [6]: 0%
Eos [6]: 0.8%
Fbg [6]: 304 mg/dL
Hb [6]: 13.7 g/dL
Ht [6]: 42.2%
MCH [6]: 20.5 pg
MCHC [6]: 32.4%
MCV [6]: 63.2 fL
Mono [6]: 2.4%
PT [6]: 16.3 s
Plat [6]: 117.9 x10_4/uL
RBC [6]: 668.2 x10_4/ul
Ret [6]: 7.1%
WBC [6]: 73.5 x10_2/uL
ALP [6]: 1429.6 IU/L
ALT [6]: 37.6 IU/L
CRE [6]: 0.1 mg/dL
DBIL [6]: 0.01 mg/dL
GLC [6]: 207.2 mg/dL
IP [6]: 9.7 mg/dL
K [6]: 4.3 meq/L
LDH [6]: 182.6 IU/L
Na [6]: 140.6 meq/L
PL [6]: 134.2 mg/dL
RALB [6]: 3.1 g/dL
TBIL [6]: 0.014 mg/dL
TC [6]: 80.8 mg/dL
TG [6]: 23.4 mg/dL
TP [6]: 5.5 g/dL
gamma-GTP [6]: 1.2 IU/L
TERMINAL_BW [7]: 206.5 g
APTT [7]: 23.7 s
Bas [7]: 0.2%
Eos [7]: 0.6%
Fbg [7]: 299 mg/dL
Hb [7]: 13.3 g/dL
Ht [7]: 40.6%
MCH [7]: 20.7 pg
MCHC [7]: 32.8%
MCV [7]: 63.2 fL
Mono [7]: 2.2%
PT [7]: 16.2 s
Plat [7]: 119.4 x10_4/uL
RBC [7]: 642.4 x10_4/ul
Ret [7]: 7.3%
WBC [7]: 77.1 x10_2/uL
ALP [7]: 1243.4 IU/L
ALT [7]: 36.6 IU/L
CRE [7]: 0.1 mg/dL
DBIL [7]: 0.014 mg/dL
GLC [7]: 200.4 mg/dL
IP [7]: 8.9 mg/dL
K [7]: 4.2 meq/L
LDH [7]: 184 IU/L
Na [7]: 140.6 meq/L
PL [7]: 136 mg/dL
RALB [7]: 3.2 g/dL
TBIL [7]: 0.02 mg/dL
TC [7]: 79.2 mg/dL
TG [7]: 57.4 mg/dL
TP [7]: 5.6 g/dL
gamma-GTP [7]: 1 IU/L
TERMINAL_BW [8]: 222.1 g
APTT [8]: 21.6 s
Bas [8]: 0%
Eos [8]: 0.8%
Fbg [8]: 290.2 mg/dL
Hb [8]: 12.7 g/dL
Ht [8]: 39%
MCH [8]: 19.5 pg
MCHC [8]: 32.4%
MCV [8]: 60.1 fL
Mono [8]: 2.2%
PT [8]: 16 s
Plat [8]: 115.3 x10_4/uL
RBC [8]: 649.8 x10_4/ul
Ret [8]: 6.8%
WBC [8]: 94.6 x10_2/uL
ALP [8]: 1144.8 IU/L
ALT [8]: 40.2 IU/L
CRE [8]: 0.1 mg/dL
DBIL [8]: 0.014 mg/dL
GLC [8]: 177.8 mg/dL
IP [8]: 7.7 mg/dL
K [8]: 3.9 meq/L
LDH [8]: 183.4 IU/L
Na [8]: 142.4 meq/L
PL [8]: 149.4 mg/dL
RALB [8]: 3.1 g/dL
TBIL [8]: 0.024 mg/dL
TC [8]: 91 mg/dL
TG [8]: 92.6 mg/dL
TP [8]: 5.5 g/dL
gamma-GTP [8]: 1 IU/L
